Results: PubChem BioAssay (NCI)
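Briefly, cells in 96-well plates were exposed to five compound concentrations for 48 h, and endpoints were estimated by linear interpolation. The concentration for 50% growth inhibition is given as GI50. At the TGI there is no net growth.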

Assays:
Assay in all cases: growth of human tumour cells (NCI), 48 h
786-0 renal = test system: 786-0 renal
A498 renal = test system: A498 renal
A549 NSCLC = test system: A549 NSCLC
ACHN renal = test system: ACHN renal
BT-549 breast = test system: BT-549 breast
CAKI-1 renal = test system: CAKI-1 renal
CCRF-CEM leukemia = test system: CCRF-CEM leukemia
COLO 205 colon = test system: COLO 205 colon
DU-145 prostate = test system: DU-145 prostate
EKVX NSCLC = test system: EKVX NSCLC
HCC-2998 colon = test system: HCC-2998 colon
HCT-116 colon = test system: HCT-116 colon
HCT-15 colon = test system: HCT-15 colon
HL-60(TB) leukemia = test system: HL-60(TB) leukemia
HOP-62 NSCLC = test system: HOP-62 NSCLC
HOP-92 NSCLC = test system: HOP-92 NSCLC
HS 578T breast = test system: HS 578T breast
HT29 colon = test system: HT29 colon
IGROV1 ovarian = test system: IGROV1 ovarian
K-562 leukemia = test system: K-562 leukemia
KM12 colon = test system: KM12 colon
LOX IMVI melanoma = test system: LOX IMVI melanoma
M14 melanoma = test system: M14 melanoma
MALME-3M melanoma = test system: MALME-3M melanoma
MCF7 breast = test system: MCF7 breast
MDA-MB-231 breast = test system: MDA-MB-231 breast
MDA-MB-435 = test system: MDA-MB-435
MOLT-4 leukemia = test system: MOLT-4 leukemia
NCI-H226 lung = test system: NCI-H226 lung
NCI-H23 lung = test system: NCI-H23 lung
NCI-H460 lung = test system: NCI-H460 lung
NCI-H522 lung = test system: NCI-H522 lung
NCI/ADR-RES ovarian = test system: NCI/ADR-RES ovarian
OVCAR-3 ovarian = test system: OVCAR-3 ovarian
OVCAR-4 ovarian = test system: OVCAR-4 ovarian
OVCAR-5 ovarian = test system: OVCAR-5 ovarian
OVCAR-8 ovarian = test system: OVCAR-8 ovarian
PC-3 prostate = test system: PC-3 prostate
RPMI-8226 leukemia = test system: RPMI-8226 leukemia
RXF 393 renal = test system: RXF 393 renal
SF-268 CNS = test system: SF-268 CNS
SF-295 CNS = test system: SF-295 CNS
SF-539 CNS = test system: SF-539 CNS
SK-MEL-2 melanoma = test system: SK-MEL-2 melanoma
SK-MEL-28 melanoma = test system: SK-MEL-28 melanoma
SK-MEL-5 melanoma = test system: SK-MEL-5 melanoma
SK-OV-3 ovarian = test system: SK-OV-3 ovarian
SN12C renal = test system: SN12C renal
SNB-19 CNS = test system: SNB-19 CNS
SNB-75 CNS = test system: SNB-75 CNS
SR leukemia = test system: SR leukemia
SW-620 colon = test system: SW-620 colon
T-47D breast = test system: T-47D breast
TK-10 renal = test system: TK-10 renal
U251 CNS = test system: U251 CNS
UACC-257 melanoma = test system: UACC-257 melanoma
UACC-62 melanoma = test system: UACC-62 melanoma
UO-31 renal = test system: UO-31 renal

Oc1ccc(Cc2ccccc2)c2cccnc12
GI50 (786-0 renal): 2.04 µM | TGI (786-0 renal): 6.57 µM | GI50 (A498 renal): 25.6 µM | TGI (A498 renal): > 100 µM | GI50 (A549 NSCLC): 4.21 µM | TGI (A549 NSCLC): 71.9 µM | GI50 (ACHN renal): 1.21 µM | TGI (ACHN renal): 9.53 µM | GI50 (BT-549 breast): 2.33 µM | TGI (BT-549 breast): 26.7 µM | GI50 (CAKI-1 renal): 2.22 µM | TGI (CAKI-1 renal): 8.96 µM | GI50 (CCRF-CEM leukemia): 0.423 µM | TGI (CCRF-CEM leukemia): 5.44 µM | GI50 (COLO 205 colon): 7.74 µM | TGI (COLO 205 colon): > 100 µM | GI50 (DU-145 prostate): 2.58 µM | TGI (DU-145 prostate): > 100 µM | GI50 (EKVX NSCLC): 2.32 µM | TGI (EKVX NSCLC): > 100 µM | GI50 (HCC-2998 colon): 3.65 µM | TGI (HCC-2998 colon): 16.6 µM | GI50 (HCT-116 colon): 1.79 µM | TGI (HCT-116 colon): 21.5 µM | GI50 (HCT-15 colon): 0.507 µM | TGI (HCT-15 colon): 44.9 µM | GI50 (HL-60(TB) leukemia): 1.56 µM | TGI (HL-60(TB) leukemia): 6.65 µM | GI50 (HOP-62 NSCLC): 2.03 µM | TGI (HOP-62 NSCLC): 80.6 µM | GI50 (HOP-92 NSCLC): 1.02 µM | TGI (HOP-92 NSCLC): 39.6 µM | GI50 (HS 578T breast): > 100 µM | TGI (HS 578T breast): > 100 µM | GI50 (HT29 colon): 22.5 µM | TGI (HT29 colon): > 100 µM | GI50 (IGROV1 ovarian): 2.2 µM | TGI (IGROV1 ovarian): 32.8 µM | GI50 (K-562 leukemia): 0.836 µM | TGI (K-562 leukemia): > 100 µM | GI50 (KM12 colon): 2.07 µM | TGI (KM12 colon): 27 µM | GI50 (LOX IMVI melanoma): 1.53 µM | TGI (LOX IMVI melanoma): 19 µM | GI50 (M14 melanoma): 1.51 µM | TGI (M14 melanoma): 10.6 µM | GI50 (MALME-3M melanoma): 2.96 µM | TGI (MALME-3M melanoma): 31.6 µM | GI50 (MCF7 breast): 7.46 µM | TGI (MCF7 breast): > 100 µM | GI50 (MDA-MB-231 breast): 4.36 µM | TGI (MDA-MB-231 breast): 27.4 µM | GI50 (MDA-MB-435): 1.83 µM | TGI (MDA-MB-435): > 100 µM | GI50 (MOLT-4 leukemia): 1.41 µM | TGI (MOLT-4 leukemia): 93.8 µM | GI50 (NCI-H226 lung): 13.8 µM | TGI (NCI-H226 lung): 67.5 µM | GI50 (NCI-H23 lung): 2.9 µM | TGI (NCI-H23 lung): 57.1 µM | GI50 (NCI-H460 lung): 1.61 µM | TGI (NCI-H460 lung): 17.3 µM | GI50 (NCI-H522 lung): 3.69 µM | TGI (NCI-H522 lung): 76 µM | GI50 (NCI/ADR-RES ovarian): 0.49 µM | TGI (NCI/ADR-RES ovarian): 13.3 µM | GI50 (OVCAR-3 ovarian): 6.7 µM | TGI (OVCAR-3 ovarian): 37.6 µM | GI50 (OVCAR-4 ovarian): 6.35 µM | TGI (OVCAR-4 ovarian): > 100 µM | GI50 (OVCAR-5 ovarian): 4.73 µM | TGI (OVCAR-5 ovarian): > 100 µM | GI50 (OVCAR-8 ovarian): 2.35 µM | TGI (OVCAR-8 ovarian): > 100 µM | GI50 (PC-3 prostate): 2.7 µM | TGI (PC-3 prostate): 67.4 µM | GI50 (RPMI-8226 leukemia): 1.46 µM | TGI (RPMI-8226 leukemia): > 100 µM | GI50 (RXF 393 renal): 2.3 µM | TGI (RXF 393 renal): 19.2 µM | GI50 (SF-268 CNS): 2.18 µM | TGI (SF-268 CNS): 86.8 µM | GI50 (SF-295 CNS): 1.34 µM | TGI (SF-295 CNS): 20.5 µM | GI50 (SF-539 CNS): 1.66 µM | TGI (SF-539 CNS): 19.2 µM | GI50 (SK-MEL-2 melanoma): 12.7 µM | TGI (SK-MEL-2 melanoma): 70.6 µM | GI50 (SK-MEL-28 melanoma): 10.3 µM | TGI (SK-MEL-28 melanoma): > 100 µM | GI50 (SK-MEL-5 melanoma): 1.52 µM | TGI (SK-MEL-5 melanoma): 10.8 µM | GI50 (SK-OV-3 ovarian): 3.43 µM | TGI (SK-OV-3 ovarian): > 100 µM | GI50 (SN12C renal): 2.61 µM | TGI (SN12C renal): > 100 µM | GI50 (SNB-19 CNS): 3.08 µM | TGI (SNB-19 CNS): > 100 µM | GI50 (SNB-75 CNS): 14.7 µM | TGI (SNB-75 CNS): > 100 µM | GI50 (SR leukemia): 0.673 µM | TGI (SR leukemia): > 100 µM | GI50 (SW-620 colon): 3.39 µM | TGI (SW-620 colon): 54.8 µM | GI50 (T-47D breast): 3.6 µM | TGI (T-47D breast): > 100 µM | GI50 (TK-10 renal): 2.81 µM | TGI (TK-10 renal): > 100 µM | GI50 (U251 CNS): 0.999 µM | TGI (U251 CNS): 37.7 µM | GI50 (UACC-257 melanoma): 4.06 µM | TGI (UACC-257 melanoma): > 100 µM | GI50 (UACC-62 melanoma): 2.32 µM | TGI (UACC-62 melanoma): 6.04 µM | GI50 (UO-31 renal): 0.628 µM | TGI (UO-31 renal): 9.34 µM
